Assay results reported in paper PMC12118597 (Science Advances, 2025).
Where “and” joins values, the source holds several entries; their conditions need not be identical. Identical values can stand only once. Like-named read-outs stand apart in the source and are kept apart here.

Tests used:
[1] = biological target: T1, SARS-CoV-2 NSP3 macrodomain (Mac1) (Severe acute respiratory syndrome coronavirus 2, UniProt P0DTD1); format: binding; conditions: for Number of isomers bound: ligand modeling, Mac1 crystal soak
[2] = biological target: T1, SARS-CoV-2 NSP3 macrodomain (Mac1); assay: biochemical; format: binding
[3] = crystal soak 10 mM, P43 crystal form
[4] = crystal soak 10 mM, DMSO background map
[5] = SARS CoV-2 macrodomain HTRF assay, single dose concentration 200 μM, read-out: Average % competition
[6] = compound at 200 μM, mean of three to four technical replicates, read-out: % competition at 200 μM (preliminary HTRF screen)
[7] = SARS CoV-2 macrodomain HTRF assay
[8] = SARS CoV-2 macrodomain HTRF assay, dose-response, read-out: IC50
[9] = stereoisomer(s) modeled as bound, residues 201/202/203
[10] = Single dose, concentration 200 μM
[11] = read-out: IC50 (confirmatory HTRF dose-response screen)
[12] = stereoisomer(s)/conformations of the soaked ligand modeled in the Mac1 crystal structure

| SMILES | inhibition at 200 µM [2, 6] | Ki [2, 7] | Ligand efficiency (binding enery per heavy atom) [2, 7] | Number of isomers bound [1] | PanDDA run, TFA/DMSO background map: 1-BDC ([1]; crystal soak 10 mM) | PanDDA run, TFA/DMSO background map: Hit ([1]; crystal soak 10 mM) | Average % competition [2, 10] | also measured |
| --- | --- | --- | --- | --- | --- | --- | --- | --- |
| OC[C@H]1CN2CCC[C@H]2CN1c1ncnc2[nH]ccc12 [AVI-3724] | < 10% |  |  |  |  |  |  | PanDDA run, overall: Hit [1, 3]: TRUE; PanDDA run, overall: Modeling comment [1, 3]: Weak density, not modeled; PanDDA run, DMSO background map: 1-BDC [1, 4]: 0.05; PanDDA run, DMSO background map: Hit [1, 4]: TRUE; inhibition at 200 µM [2, 5]: < 10% |
| Cc1c[nH]c2ncnc(NCC3(O)CCCC3)c12 [AVI-3760, 1-(((5-methyl-7H-pyrrolo[2,3-d]pyrimidin-4-yl)amino)methyl)cyclopentan-1-ol] |  | 18 µM | 0.36 |  |  |  |  | 1-BDC ([1]; PanDDA background density correction, 1-BDC): 0.16; X-ray crystal structure ([1]; TRUE = crystal structure with ligand obtained): TRUE; Hit (PanDDA run, DMSO background map) [1, 4]: TRUE; 1-BDC (PanDDA run, DMSO background map) ([1]; crystal soak 10 mM, DMSO background map, event 1): 0.19 and 0.16; Hit (PanDDA run, overall) ([1]; crystal soak, 10 mM soak concentration, P43 crystal form): TRUE; Refined ligand occupancy (%) ([1]; crystallographic refinement): 50%; 2*(1-BDC) (%) ([1]; occupancy estimate from PanDDA): 32%; Binding site ([1]; site of ligand in X-ray crystal structure): Adenosine; Hill slope ([2]; HTRF binding curve, SARS-CoV-2 Mac1): 1.1; Hill slope ([2]; SARS CoV-2 macrodomain HTRF assay, dose-response): 1.1; IC50 [2, 8]: 19 µM |
| CC1(C)CCC(CO)N(c2ncnc3[nH]ccc23)C1 (centres unmarked) [AVI-3726] | 76% |  |  | 2 |  |  |  | Isomers modeled [1, 9]: R,R,S; inhibition at 200 µM [2, 5]: 76% |
| CCC(CC)(CO)Nc1ncnc2[nH]ccc12 [AVI-3695] |  | 37 µM | 0.36 | 1 |  |  |  | IC50 [2, 8]: 40 µM |
| OCC(Nc1ncnc2[nH]ccc12)C1CCOC1 (centres unmarked) [AVI-3679] | 35% |  |  | 1 | 0.11 | TRUE | 35% |  |
| OCC(Nc1ncnc2[nH]ccc12)c1ccccc1 (centres unmarked) [AVI-3715] | 54% |  |  | 1 | 0.09 | TRUE | 54% |  |
| Cc1nn(C)cc1C1CC[C@H](CO)N1c1ncnc2[nH]ccc12 (some centres unmarked) [AVI-3733] | 44% |  |  | 1 |  |  |  | inhibition at 200 µM [2, 5]: 44% |
| OCC(CN1CCCCC1)Nc1ncnc2[nH]ccc12 (centres unmarked) [AVI-3677] | < 10% |  |  | 1 | 0.18 | TRUE | <10% |  |
| OCC(COCc1ccccc1)Nc1ncnc2[nH]ccc12 (centres unmarked) [AVI-3709] | 29% |  |  | 2 | 0.16 | TRUE | 29% | Isomers modeled [1, 9]: S,R |
| CC(CNC(=O)c1ccc2c(c1)CCC(=O)N2)C(=O)O (centres unmarked) [AVI-328] |  |  |  | 2 |  |  |  | Isomers modeled [1, 9]: R,S; Ligand efficiency (binding enery per heavy atom) [2]: 0.25; Ki ([2]; dose-response): 210 µM; IC50 [2, 11]: 220 µM |
| O[C@H]1CC[C@@H]2CCN(c3ncnc4[nH]ccc34)[C@@H]21 [AVI-3664] |  | 26 µM | 0.35 | 1 | 0.15 | TRUE |  | Isomers modeled [1, 9]: SRS; IC50 [2, 8]: 28 µM |
| OCCC(CO)Nc1ncnc2[nH]ccc12 (centres unmarked) [AVI-3734] |  | 48 µM | 0.37 | 1 |  |  |  | IC50 [2, 11]: 52 µM |
| NC(=O)C1(O)CCN(c2ncnc3[nH]ccc23)C1 (centres unmarked) [AVI-611] | 30% |  |  | 1 |  |  |  | Isomers modeled [1, 9]: S,S; Average % competition ([2]; SARS CoV-2 macrodomain HTRF assay, single dose concentration 200 μM): 30% |
| O=C(O)C(F)(F)F.O[C@H]1CCC[C@@H]1Nc1ncnc2[nH]ccc12 [AVI-3639] | 74% |  |  | 1 | 0.09 | TRUE | 74% |  |
| CCC(Nc1ncnc2[nH]ccc12)C(C)(C)O (centres unmarked) [AVI-3667] | 51% |  |  | 1 | 0.07 | TRUE | 51% |  |
| Cc1c(C)n(Cc2ccccc2)c2ncnc(N)c12 [AVI-321] | 19% |  |  | 1 |  |  |  |  |
| CC(C)(O)C1N(c2ncnc3[nH]ccc23)CCC1(C)C (centres unmarked) [AVI-4126] |  | 93 µM | 0.28 |  |  |  |  | Isomers modeled [1, 12]: R,S; IC50 [2, 8]: 100 µM |
| OCC(Nc1ncnc2[nH]ccc12)C1CCc2ccccc21 (centres unmarked) [AVI-3693] | 78% |  |  | 2 |  |  | 78% | Isomers modeled [1, 9]: RR,SR |
| CCC(Nc1ncnc2[nH]ccc12)C(C)O (centres unmarked) [AVI-3635] | 54% |  |  | 1 | 0.11 and 0.08 | TRUE | 54% |  |
| C[C@@H]1CCN(c2ncnc3[nH]ccc23)[C@H](CO)C1 [AVI-4064] |  | 93 µM | 0.31 |  |  |  |  | Isomers modeled [1, 12]: RS,SR; IC50 [2, 8]: 100 µM |
| O=C(O)C(F)(F)F.OC[C@@H]1CC2(CC2)CN1c1ncnc2[nH]ccc12 [AVI-3710] | 57% |  |  | 1 | 0.23 | TRUE |  | Isomers modeled [1, 9]: S,S; inhibition at 200 µM [2, 5]: 57% |
| CN(C)CC(CO)Nc1ncnc2[nH]ccc12 (centres unmarked) [AVI-3671] | < 10% |  |  | 1 | 0.13 | TRUE | <10% |  |
| CC1CCN(C(=O)c2ccc3c(c2)nc(CO)n3C)CC1C(=O)O (centres unmarked) [AVI-348] | < 10% |  |  | 1 |  |  |  | Average % competition ([2]; single dose concentration 200 μM (TS-FrankenROCS series)): <10% |
| O=C(O)C(F)(F)F.OCC1(Nc2ncnc3[nH]ccc23)CCCC1 [AVI-3692] |  | 46 µM | 0.35 | 1 | 0.11 | TRUE |  | IC50 [2, 8]: 49 µM |
| OCC(CC1CCCCC1)Nc1ncnc2[nH]ccc12 (centres unmarked) [AVI-3690] | 66% |  |  | 1 |  |  | 66% |  |
| C#CCC(CO)Nc1ncnc2[nH]ccc12 (centres unmarked) [AVI-3644] | 43% |  |  | 1 | 0.11 | TRUE | 43% |  |
| OC[C@@H]1C[C@H](O)CN1c1ncnc2[nH]ccc12 [AVI-610] |  | 150 µM | 0.31 | 1 |  |  |  | IC50 [2, 8]: 160 µM |
| OCC(Nc1ncnc2[nH]ccc12)c1ccco1 (centres unmarked) [AVI-3659] | 55% |  |  | 1 | 0.08 | TRUE | 55% |  |
| OCC(CC(F)(F)F)Nc1ncnc2[nH]ccc12 (centres unmarked) [AVI-3637] | 50% |  |  | 1 | 0.21 | TRUE | 50% |  |
| CC(C)(O)C1C2CCC2CN1c1ncnc2[nH]ccc12 (centres unmarked) [AVI-4128] |  | 22 µM | 0.32 |  |  |  |  | Isomers modeled [1, 12]: SRR; IC50 [2, 11]: 24 µM |
